Source: patent publication US20070219180A1, “Muscle Relaxtion Accelerator and Therapeutic Agent for Muscular Tissue Diseases Such as Muscle Relaxation Failure” (priority 2004, published 2007)

Key:
[1] = tested on: male Wistar rats; assay: Experiment 2: effect of the compound on blood pressure in rats under calcium chloride and norepinephrine infusion; format: in vivo, rat
Method: (§1) Eight-week old male Wistar rats weighing 310-330 g were used in this experiment. The rats were anesthetized with 1,000 mg/kg of urethane and 80 mg/kg of α-chloralose by subperitoneal injection, and natural respiration was maintained. In this experiment, 100 mg of the compound was dissolved in 1 ml of dimethylsulfoxide (DMSO) and the resulting DMSO solution of the compound was stored at 4° C. Norepinephrine solution was prepared by dissolving 1 mg of norepinephrine in 41 μl of distilled water.
Similarly to Experiment 1, this experiment was performed at 20 to 25° C. Furthermore, similarly to Experiment 1, continuous infusion catheters of calcium chloride solution or norepinephrine solution containing calcium chloride were inserted into the right external jugular veins of the rats, and microchip catheters (SPC-320, Millar) were inserted into the aorta via the right common arteries.
A 1-lead electrocardiogram and the systolic pressure and diastolic pressure were recorded on a personal computer via an A/D converter. In the preparation step, blood pressure, pulse, and electrocardiogram of the rats were monitored for 15 minutes and allowed to stabilize, and then 5% dextrose solution containing calcium chloride (at a concentration based on the weight of the rat) was infused into the right external jugular vein for 25 minutes at 16.6 μl/min (9.0 mg/kg/min of calcium chloride).
Secondly, norepinephrine solution containing calcium chloride without changes in the dosage regimen was immediately injected at a rate of 40 μg/kg/min (in the form of a norepinephrine solution containing calcium chloride). Five minutes after commencement of injection (intravenous injection) of norepinephrine, continuous injection of calcium chloride and norepinephrine in the form of a norepinephrine solution containing calcium chloride was started, and 0.2 ml of 1% DMSO solution as a solvent control was administered over 30 seconds to the first rat (weight: 310 g) via the right femoral vein; this rat was defined as Control 3. After the solvent control was injected, 1% DMSO solution as a solvent control was additionally administered to Control 3 at 10 μl/min from commencement of solvent control injection to 15 minutes after the start of administration. Similarly to Control 3, 5 minutes after commencement of injection (intravenous injection) of norepinephrine in the form of a norepinephrine solution containing the calcium chloride, continuous injection of the calcium chloride and norepinephrine in the form of a norepinephrine solution containing calcium chloride was started, and 0.2 ml of 1% DMSO solution containing 0.3 mg/kg of the compound was administered over 30 seconds to a second rat (weight: 330 g; referred to as Test drug 3), and 1% DMSO solution containing 0.02 mg/kg of the test drug was then administered for 14 minutes at a rate of 0.02 mg/kg/min. Systolic pressure (mmHg) and diastolic pressure (mmHg) of each rat were measured at 20 heart beats every 2 minutes for 14 minutes after commencement of intravenous injection of the test drug. Mean blood pressure was calculated from the measured systolic pressure (mmHg) and diastolic pressure (mmHg) according to the following formula: mean blood pressure=[…].

[2] = tested on: male Wistar rats; assay: Experiment 3: left ventricular diastolic function by tissue Doppler imaging; format: in vivo, rat; details: 0.3 mg/kg i.v. over 30 s then 0.02 mg/kg/min for 20 min
Method: as §1, with “In this experiment on the invention, two 9-week” for “Eight-week”, “310 and 320” for “310-330”, “used.” for “used in this experiment.”, “solution” for “solution of the compound”
Similarly to Test drug 1, this study was performed at room temperature of 20 to 25° C., and also similarly to Test drug 1, continuous infusion catheters of calcium chloride solution or norepinephrine solution containing calcium chloride were inserted into the right external jugular vein and microchip catheters (SPC-320, Millar) were inserted into the aorta via the right common arteries.
A 1-lead electrocardiogram was recorded, and blood pressure, pulse, and electrocardiogram of the rats were monitored for 15 minutes and allowed to stabilize. In the preparation step, calcium chloride dissolved in 5% dextrose solution was infused into the right external jugular vein for 25 minutes at 16.6 μl/min (9.0 mg/kg/min of calcium chloride).
Secondly, immediate injection (intravenous injection) of a solution containing calcium chloride and norepinephrine without changes in dosage was started via the right external jugular vein at a rate of 40 μg/kg/min. After the start of administration, calcium chloride and norepinephrine were continuously injected in the form of a norepinephrine solution containing calcium chloride. Furthermore, with continuous injection of calcium chloride and norepinephrine (in the form of a norepinephrine solution containing calcium chloride), 0.2 ml of 1% DSMO was administered alone over 30 seconds to the first rat (weight: 310 g) as a control via the right femoral vein, 5 minutes after commencement of intravenous injection of calcium chloride and norepinephrine (in the form of a norepinephrine solution containing calcium chloride); this rat was defined as Control 4. Similarly to Control 4, with continuous injection of calcium chloride and norepinephrine (in the form of a norepinephrine solution containing calcium chloride) 0.2 ml of 1% DSMO solution containing 0.3 mg/kg of the test drug in the invention was administered over 30 seconds to a second rat (weight: 320 g; Test drug 3) via its right femoral vein, followed by administration for 20 minutes at 0.02 mg/kg/min, 5 minutes after intravenous injection of calcium chloride and norepinephrine (in the form of a norepinephrine solution containing calcium chloride). The left ventricular diastolic function of each rat was examined using tissue Doppler ultrasonography. Ultrasonic diagnostic equipment (Toshiba Powervision SSA-380APSK-70LT, Toshiba Corporation) was used and the rats were examined using ultrasound at 10 MHz. Firstly, the precordial region of each rat was shaved, and an ECHO probe was placed on the cardiac apex. The long axis of the left ventricle of the cardiac apex was imaged, a sample volume for pulsed-wave Doppler was established at the base of the posterior mitral leaflet, and the velocity of the left ventricular posterior wall motion [Ea wave (m/sec)] was measured at diastole as the left ventricular diastolic function. In this experiment, the left ventricular diastolic function is defined as the ratio of the velocity of the left ventricular wall motion at diastole before intravenous injection of norepinephrine (before administration; i.e. a normal left ventricular wall) determined using tissue Doppler imaging, or the ratio of the velocity of the left ventricular wall motion at diastole after intravenous injection of norepinephrine (after administration).

SMILES: COc1ccc2c(c1)CN(C(=O)CCN1CCC(Cc3ccccc3)CC1)CCS2 [the compound, 4-[3-(4-benzylpiperidine-1-yl)propionyl]-7-methoxy-2,3,4,5-tetrahydro-1,4-benzothiazepine]
- Mean blood pressure ([1]; Test drug 3: 0.3 mg/kg i.v. over 30 s then 0.02 mg/kg/min for 14 min, 0 minutes (just before the start of test drug administration)): 136 mmHg
- Mean blood pressure ([1]; Test drug 3: 0.3 mg/kg i.v. over 30 s then 0.02 mg/kg/min for 14 min, 5 minutes before test drug (just before the start of norepinephrine), baseline): 125 mmHg
- Mean blood pressure ([1]; Test drug 3: 0.3 mg/kg i.v. over 30 s then 0.02 mg/kg/min for 14 min, 30 minutes before test drug (5 minutes before the start of CaCl2), baseline): 122 mmHg
- Mean blood pressure ([1]; Test drug 3: 0.3 mg/kg i.v. over 30 s then 0.02 mg/kg/min, CaCl2 + norepinephrine infusion, 2 minutes after the start of test drug administration): 149 mmHg
- Mean blood pressure ([1]; Test drug 3: 0.3 mg/kg i.v. over 30 s then 0.02 mg/kg/min, CaCl2 + norepinephrine infusion, 4 minutes after the start of test drug administration): 162 mmHg
- Mean blood pressure ([1]; Test drug 3: 0.3 mg/kg i.v. over 30 s then 0.02 mg/kg/min, CaCl2 + norepinephrine infusion, 6 minutes after the start of test drug administration): 141 mmHg
- Mean blood pressure ([1]; Test drug 3: 0.3 mg/kg i.v. over 30 s then 0.02 mg/kg/min, CaCl2 + norepinephrine infusion, 8 minutes after the start of test drug administration): 139 mmHg
- Mean blood pressure ([1]; Test drug 3: 0.3 mg/kg i.v. over 30 s then 0.02 mg/kg/min, CaCl2 + norepinephrine infusion, 10 minutes after the start of test drug administration): 135 mmHg
- Mean blood pressure ([1]; Test drug 3: 0.3 mg/kg i.v. over 30 s then 0.02 mg/kg/min, CaCl2 + norepinephrine infusion, 12 minutes after the start of test drug administration): 136 mmHg
- Mean blood pressure ([1]; Test drug 3: 0.3 mg/kg i.v. over 30 s then 0.02 mg/kg/min, CaCl2 + norepinephrine infusion, 14 minutes after the start of test drug administration): 134 mmHg
- Ratio of the velocity of the left ventricular wall motion at diastole ([2]; 0 minutes (just before the start of intravenous injection of the test drug)): 1.00
- Ratio of the velocity of the left ventricular wall motion at diastole ([2]; CaCl2 + norepinephrine infusion, 5 minutes after the start of test drug): 1.02
- Ratio of the velocity of the left ventricular wall motion at diastole ([2]; CaCl2 + norepinephrine infusion, 10 minutes after the start of test drug): 1.04
- Ratio of the velocity of the left ventricular wall motion at diastole ([2]; CaCl2 + norepinephrine infusion, 15 minutes after the start of test drug): 1.00
- Ratio of the velocity of the left ventricular wall motion at diastole ([2]; CaCl2 + norepinephrine infusion, 20 minutes after the start of test drug): 1.00
- Ratio of the velocity of the left ventricular wall motion at diastole ([2]; CaCl2 + norepinephrine infusion, 25 minutes after the start of test drug): 0.94
- Ratio of the velocity of the left ventricular wall motion at diastole ([2]; CaCl2 + norepinephrine infusion, 30 minutes after the start of test drug): 0.95
- Ratio of the velocity of the left ventricular wall motion at diastole ([2]; Ea wave relative to before norepinephrine, 5 minutes before test drug (just before the start of norepinephrine), baseline): 1.00
